Type in all cases: toxicity, cell-based
In one data set the test system is Fibroblast. Nature of the data set: Incucyte cell viability with human fibroblast. Conditions: 10 µM, compound concentration 10 uM.
The test system of another data set is HEK-293T. Kind of data set: Incucyte cell viability with HEK293T. The settings on record: human, 10 µM, compound concentration 10 uM.
The subject of a further data set is U2OS. Kind of data set: Incucyte cell viability with U2OS. Conditions: human, 10 µM, compound concentration 10 uM.
Setting [1] is: 0 h, replicate number 1, timepoint 0 hours.
The mark [2] stands for this setting: 6 h, replicate number 2, timepoint 6 hours.
[3] abbreviates: 12 h, replicate number 2, timepoint 12 hours.
[4] abbreviates: 18 h, replicate number 2, timepoint 18 hours.
The mark [5] stands for this setting: 24 h, replicate number 1, timepoint 24 hours.
[6] abbreviates: 18 h, replicate number 1, timepoint 18 hours.
[7] abbreviates: 24 h, replicate number 2, timepoint 24 hours.
The mark [8] stands for this setting: 0 h, replicate number 2, timepoint 0 hours.
The mark [9] stands for this setting: 6 h, replicate number 1, timepoint 6 hours.
Where [10] appears, read: 12 h, replicate number 1, timepoint 12 hours.

Molecules are shown by their SMILES.
Further: filed as whole numbers so only -1 and 0 and 1 occur.

With `Cn1cc(Cl)c2c(Oc3c(F)cc(Nc4cc(Cl)nc(N)n4)cc3F)ccnc21` [BAY-4900], the “Growth Rate” value in the data set on Fibroblast (setting [1]) is recorded as 0; with Fibroblast (setting [2]) it was 0; in the data set with Fibroblast (setting [3]), 1; in the data set on Fibroblast (setting [4]), 1; in the data set with Fibroblast (setting [5]), 1; with HEK-293T (setting [1]) it was 0. The “Growth Rate” value was determined as 0 in the data set with HEK-293T (setting [2]); 0 with HEK-293T (setting [3]); 1 with HEK-293T (setting [6]); 0 in the data set with HEK-293T (setting [4]); 1 with HEK-293T (setting [5]); 0 with HEK-293T (setting [7]). Also, the “Growth Rate” value is 1 with U2OS (setting [1]); 0 with U2OS (setting [8]); 1 in the data set on U2OS (setting [9]); 1 with U2OS (setting [10]); 0 with U2OS (setting [6]); 1 with U2OS (setting [4]). The “Growth Rate” value with U2OS (setting [5]) is 1.

In the case of `O=C(O)[C@H]1[C@H](Cn2nnc3ccccc3c2=O)CC[C@@H]1C(=O)c1ccc(OCCC2CCOCC2)cc1` [BAY-7598], the “Growth Rate” value stood at 0 with Fibroblast (setting [1]); 1 with Fibroblast (setting [9]); 1 in the data set with Fibroblast (setting [10]); 1 with Fibroblast (setting [6]); 1 in the data set on Fibroblast (setting [5]); 0 with HEK-293T (setting [1]). For the same compound, the “Growth Rate” value with HEK-293T (setting [8]) came out at 1; with HEK-293T (setting [2]), 1; in the data set with HEK-293T (setting [10]), 1; with HEK-293T (setting [6]), 1; in the data set with HEK-293T (setting [5]) it was 1; with U2OS (setting [8]), 0. For the same compound, the “Growth Rate” value with U2OS (setting [9]) is listed as 1; in the data set on U2OS (setting [10]), 1; with U2OS (setting [3]) it was 0; in the data set on U2OS (setting [6]) it was 0; in the data set with U2OS (setting [4]) it was 1; in the data set with U2OS (setting [5]) it was 1.

`C[C@H]1C[C@H]2[C@@H]3CCC4=CC(=O)C=C[C@]4(C)[C@@]3(Cl)[C@@H](O)C[C@]2(C)[C@@]1(O)C(=O)CO` [BECLOMETHASONE]: the “Growth Rate” value with Fibroblast (setting [1]) is on record as 0; in the data set on Fibroblast (setting [2]) it was 0; in the data set with HEK-293T (setting [1]), 0; with HEK-293T (setting [9]), 1; in the data set with HEK-293T (setting [2]), 0; with HEK-293T (setting [10]), 1. The “Growth Rate” value amounted to 0 with HEK-293T (setting [3]); 1 in the data set with HEK-293T (setting [6]); 0 in the data set with HEK-293T (setting [4]); 1 in the data set on HEK-293T (setting [5]); 0 in the data set with HEK-293T (setting [7]); 0 in the data set with U2OS (setting [1]). The “Growth Rate” value was determined as 0 in the data set on U2OS (setting [2]), 1 in the data set with U2OS (setting [10]), 1 with U2OS (setting [6]) and 1 with U2OS (setting [5]).

Regarding `CC1=C2C[C@H]3[C@@H](CC=C4C[C@@H](O)CC[C@@]43C)[C@@H]2CC[C@]12O[C@@H]1C[C@H](C)CN[C@H]1[C@H]2C` [CYCLOPAMINE], the “Growth Rate” value in the data set with Fibroblast (setting [1]) was 0; with Fibroblast (setting [8]), 1; with Fibroblast (setting [9]), 1; in the data set with Fibroblast (setting [10]), 0; with Fibroblast (setting [6]), 0; with Fibroblast (setting [4]), 1. The “Growth Rate” value in the data set with Fibroblast (setting [5]), with HEK-293T (setting [1]), with HEK-293T (setting [9]), with HEK-293T (setting [10]), with HEK-293T (setting [6]) and in the data set on HEK-293T (setting [5]) was 0 throughout. In addition, the “Growth Rate” value in the data set with U2OS (setting [1]) was 0; in the data set on U2OS (setting [2]), 0; with U2OS (setting [3]) it was 1; in the data set on U2OS (setting [4]) it was 1; with U2OS (setting [5]) it was 1.

Take `Cc1c(F)cccc1NC(=O)Nc1ccc(Cl)c(S(=O)(=O)[C@H]2CCCNC2)c1O` [DANIRIXIN]: the “Growth Rate” value stood at 0 with Fibroblast (setting [1]); 1 with Fibroblast (setting [10]); 1 in the data set on Fibroblast (setting [6]); 1 in the data set on Fibroblast (setting [5]); 0 with HEK-293T (setting [1]); 0 in the data set with HEK-293T (setting [9]). In addition, the “Growth Rate” value worked out at 0 in the data set on HEK-293T (setting [10]); 0 with HEK-293T (setting [6]); 0 in the data set with HEK-293T (setting [5]); 0 in the data set on U2OS (setting [1]); 1 in the data set on U2OS (setting [8]); 0 in the data set on U2OS (setting [9]). The “Growth Rate” value in the data set with U2OS (setting [2]) came to 1; in the data set on U2OS (setting [10]) it was 0; with U2OS (setting [3]) it was 1; in the data set on U2OS (setting [6]), 0; with U2OS (setting [4]), 1; in the data set on U2OS (setting [5]), 0. For the same compound, in the data set on U2OS (setting [7]), the “Growth Rate” value is recorded as 1.

On to `CCN(CCO)CCCOc1ccc2c(Nc3cc(CC(=O)Nc4cccc(F)c4)[nH]n3)ncnc2c1` [DEFOSBARASERTIB], for which the “Growth Rate” value in the data set with Fibroblast (setting [8]) was 1; in the data set with Fibroblast (setting [9]), 0; in the data set with Fibroblast (setting [10]) it was 0; in the data set on Fibroblast (setting [6]), 0; with Fibroblast (setting [5]) it was 0; in the data set on HEK-293T (setting [8]), 1. In addition, the “Growth Rate” value in the data set on HEK-293T (setting [2]) came to 1; in the data set on HEK-293T (setting [5]), 1; in the data set on U2OS (setting [1]), 1; with U2OS (setting [9]), 0; in the data set with U2OS (setting [10]), 0; in the data set on U2OS (setting [6]) it was 0. Besides, the “Growth Rate” value in the data set with U2OS (setting [5]) came to 0.

Regarding `COc1cccc(-c2c(C)n(Cc3c(F)cccc3C(F)(F)F)c(=O)n(C[C@H](NCCCC(=O)[O-])c3ccccc3)c2=O)c1F.[Na+]` [ELAGOLIX SODIUM], the “Growth Rate” value with Fibroblast (setting [1]) is given as 0; in the data set with Fibroblast (setting [8]) it was 1; in the data set with Fibroblast (setting [2]), 0; with Fibroblast (setting [3]), 0; in the data set on Fibroblast (setting [4]) it was 0; in the data set with Fibroblast (setting [7]), 0. The “Growth Rate” value stood at 0 with HEK-293T (setting [1]); 1 with HEK-293T (setting [9]); 1 in the data set on HEK-293T (setting [10]); 0 in the data set with HEK-293T (setting [3]); 1 with HEK-293T (setting [6]); 1 with HEK-293T (setting [5]). The “Growth Rate” value in the data set on U2OS (setting [8]) was 1; with U2OS (setting [9]) it was 0; in the data set on U2OS (setting [10]), 0; in the data set on U2OS (setting [6]), 0; in the data set on U2OS (setting [4]), 1; with U2OS (setting [5]) it was 0.

Consider `C[C@H](NC(=O)Nc1cc2[nH]ncc2c(CO)n1)c1ccccn1` [ERKi-NC], for which the “Growth Rate” value in the data set on Fibroblast (setting [8]) is recorded as 1; in the data set with Fibroblast (setting [9]) it was 0; with Fibroblast (setting [10]), 0; in the data set on Fibroblast (setting [6]) it was 1; with Fibroblast (setting [4]), 0; in the data set on Fibroblast (setting [5]) it was 1. Moreover, the “Growth Rate” value in the data set with HEK-293T (setting [1]) stood at 0; in the data set on HEK-293T (setting [8]), 1; in the data set with HEK-293T (setting [6]), 1; with HEK-293T (setting [5]), 1; with U2OS (setting [1]) it was 0; with U2OS (setting [9]), 0. Also, the “Growth Rate” value in the data set with U2OS (setting [2]) is 1; with U2OS (setting [10]), 0; in the data set on U2OS (setting [3]), 1; in the data set on U2OS (setting [6]) it was 0; in the data set on U2OS (setting [4]) it was 1; in the data set with U2OS (setting [5]), 0. Besides, the “Growth Rate” value with U2OS (setting [7]) came out at 1.

Turning to `C[C@@H](NC(=O)Nc1cc2[nH]ncc2c(CO)n1)c1ccccc1` [ERKi], the “Growth Rate” value in the data set on Fibroblast (setting [1]) was 0; in the data set on Fibroblast (setting [10]), 1; in the data set with Fibroblast (setting [6]), 1; with Fibroblast (setting [5]), 0; in the data set on Fibroblast (setting [7]), 1; in the data set with HEK-293T (setting [1]) it was 0. Moreover, the “Growth Rate” value with HEK-293T (setting [7]) was determined as 1; in the data set on U2OS (setting [1]), 0; in the data set with U2OS (setting [9]) it was 0; in the data set with U2OS (setting [10]), 0; in the data set with U2OS (setting [6]), 0; in the data set on U2OS (setting [5]), 0.

As for `CCOC(=O)c1ncn2c1CN(C)C(=O)c1cc(F)ccc1-2` [FLUMAZENIL], the “Growth Rate” value came out at 0 with Fibroblast (setting [1]); 0 in the data set with Fibroblast (setting [2]); 0 in the data set on Fibroblast (setting [3]); 1 in the data set on Fibroblast (setting [6]); 0 in the data set with Fibroblast (setting [4]); 1 with Fibroblast (setting [5]). Besides, the “Growth Rate” value was 0 with HEK-293T (setting [1]); 1 in the data set on HEK-293T (setting [9]); 0 in the data set on HEK-293T (setting [2]); 1 in the data set with HEK-293T (setting [10]); 0 in the data set on HEK-293T (setting [3]); 1 in the data set with HEK-293T (setting [6]). For the same compound, the “Growth Rate” value with HEK-293T (setting [4]) amounted to 0; in the data set with HEK-293T (setting [5]) it was 1; in the data set on HEK-293T (setting [7]), 0; in the data set on U2OS (setting [1]), 1; in the data set on U2OS (setting [9]), 0; with U2OS (setting [10]), 0. In addition, the “Growth Rate” value is 0 in the data set on U2OS (setting [6]), 1 with U2OS (setting [4]), 0 in the data set on U2OS (setting [5]) and 1 in the data set on U2OS (setting [7]).

The values above are taken from ChEMBL document CHEMBL4689842, “EUbOPEN Chemogenomics Library wave 1” (2021).
